According to ChEMBL document CHEMBL1139393 (Bioorg Med Chem Lett, 2008):

How the values were obtained:
[1] = molecular target: Matrix metalloproteinase-14 (Homo sapiens, UniProt P50281)
[2] = molecular target: Stromelysin-1 (Homo sapiens, UniProt P08254)
[3] = molecular target: T1, Disintegrin and metalloproteinase domain-containing protein 10 (Homo sapiens, UniProt O14672)
T1 sequence (O14672 whole entry): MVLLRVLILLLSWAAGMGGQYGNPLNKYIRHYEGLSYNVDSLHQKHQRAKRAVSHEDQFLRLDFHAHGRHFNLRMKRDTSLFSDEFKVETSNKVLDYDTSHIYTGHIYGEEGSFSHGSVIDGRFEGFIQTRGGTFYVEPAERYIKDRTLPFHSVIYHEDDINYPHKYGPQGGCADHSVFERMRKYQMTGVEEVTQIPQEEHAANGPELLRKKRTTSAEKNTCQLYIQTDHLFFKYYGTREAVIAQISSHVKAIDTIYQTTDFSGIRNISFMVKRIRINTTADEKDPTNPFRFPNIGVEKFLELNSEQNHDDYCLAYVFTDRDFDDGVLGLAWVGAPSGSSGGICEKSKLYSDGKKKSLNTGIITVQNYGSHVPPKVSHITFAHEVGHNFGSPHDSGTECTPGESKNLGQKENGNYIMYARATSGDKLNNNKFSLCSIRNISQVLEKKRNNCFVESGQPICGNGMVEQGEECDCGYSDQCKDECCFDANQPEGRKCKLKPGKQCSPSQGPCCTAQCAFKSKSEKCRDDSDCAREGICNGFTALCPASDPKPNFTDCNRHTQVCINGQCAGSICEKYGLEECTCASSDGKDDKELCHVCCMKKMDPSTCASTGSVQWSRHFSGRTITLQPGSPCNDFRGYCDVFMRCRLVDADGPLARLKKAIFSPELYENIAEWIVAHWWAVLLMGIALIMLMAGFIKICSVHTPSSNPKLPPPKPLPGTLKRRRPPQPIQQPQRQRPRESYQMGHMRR

[4] = molecular target: T2, Interstitial collagenase (Homo sapiens, UniProt P03956)
T2 sequence (P03956 whole entry): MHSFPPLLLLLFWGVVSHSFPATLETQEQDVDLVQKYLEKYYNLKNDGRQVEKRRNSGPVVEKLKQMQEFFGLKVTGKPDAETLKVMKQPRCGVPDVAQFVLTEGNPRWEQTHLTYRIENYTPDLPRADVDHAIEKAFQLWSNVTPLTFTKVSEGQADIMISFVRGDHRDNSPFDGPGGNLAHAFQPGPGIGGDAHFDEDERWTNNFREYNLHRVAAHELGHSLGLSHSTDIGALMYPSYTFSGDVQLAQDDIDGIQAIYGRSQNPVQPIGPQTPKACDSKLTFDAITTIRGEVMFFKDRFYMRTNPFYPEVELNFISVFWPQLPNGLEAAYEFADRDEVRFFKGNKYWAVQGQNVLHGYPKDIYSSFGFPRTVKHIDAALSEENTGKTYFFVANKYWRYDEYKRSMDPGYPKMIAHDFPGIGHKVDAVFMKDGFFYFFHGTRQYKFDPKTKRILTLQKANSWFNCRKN

[5] = molecular target: 72 kDa type IV collagenase (Homo sapiens, UniProt P08253)
[6] = molecular target: T3, Matrilysin (Homo sapiens, UniProt P09237)
T3 sequence (P09237 whole entry): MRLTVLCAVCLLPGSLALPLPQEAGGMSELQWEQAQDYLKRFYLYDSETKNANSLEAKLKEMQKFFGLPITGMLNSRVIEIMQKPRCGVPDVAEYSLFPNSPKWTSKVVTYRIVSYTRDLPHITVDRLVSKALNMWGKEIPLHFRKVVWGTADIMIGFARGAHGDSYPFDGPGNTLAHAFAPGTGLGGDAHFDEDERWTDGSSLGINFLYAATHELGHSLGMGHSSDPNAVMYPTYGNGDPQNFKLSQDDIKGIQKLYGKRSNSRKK

[7] = Permeability from apical to basolateral side of human Caco-2 cells; assay type: ADME, cell-based; settings: read-out: permeability
[8] = AUC in Sprague-Dawley rat at 10 mg/kg, po; assay type: ADME, organism-based; design: dose 10 mg/kg, route oral; settings: plasma

Sequence of 72 kDa type IV collagenase (P08253 whole entry): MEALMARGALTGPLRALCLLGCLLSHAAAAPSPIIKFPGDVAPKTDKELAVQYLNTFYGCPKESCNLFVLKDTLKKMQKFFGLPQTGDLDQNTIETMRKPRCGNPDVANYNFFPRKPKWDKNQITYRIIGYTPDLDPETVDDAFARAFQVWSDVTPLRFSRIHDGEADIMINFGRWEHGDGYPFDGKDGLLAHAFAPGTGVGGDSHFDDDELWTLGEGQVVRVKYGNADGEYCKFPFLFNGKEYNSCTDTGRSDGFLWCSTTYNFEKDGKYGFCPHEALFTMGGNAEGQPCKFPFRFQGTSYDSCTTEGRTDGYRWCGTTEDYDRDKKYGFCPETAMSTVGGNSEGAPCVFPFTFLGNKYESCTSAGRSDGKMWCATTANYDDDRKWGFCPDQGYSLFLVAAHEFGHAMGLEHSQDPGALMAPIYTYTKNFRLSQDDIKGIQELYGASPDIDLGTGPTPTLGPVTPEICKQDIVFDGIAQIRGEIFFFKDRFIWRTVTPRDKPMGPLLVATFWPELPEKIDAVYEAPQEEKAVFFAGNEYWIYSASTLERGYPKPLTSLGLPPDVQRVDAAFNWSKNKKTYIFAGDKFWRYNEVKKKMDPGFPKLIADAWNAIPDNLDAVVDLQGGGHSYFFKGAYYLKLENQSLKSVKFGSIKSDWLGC
Sequence of Stromelysin-1 (P08254 whole entry, the tested form may be a part): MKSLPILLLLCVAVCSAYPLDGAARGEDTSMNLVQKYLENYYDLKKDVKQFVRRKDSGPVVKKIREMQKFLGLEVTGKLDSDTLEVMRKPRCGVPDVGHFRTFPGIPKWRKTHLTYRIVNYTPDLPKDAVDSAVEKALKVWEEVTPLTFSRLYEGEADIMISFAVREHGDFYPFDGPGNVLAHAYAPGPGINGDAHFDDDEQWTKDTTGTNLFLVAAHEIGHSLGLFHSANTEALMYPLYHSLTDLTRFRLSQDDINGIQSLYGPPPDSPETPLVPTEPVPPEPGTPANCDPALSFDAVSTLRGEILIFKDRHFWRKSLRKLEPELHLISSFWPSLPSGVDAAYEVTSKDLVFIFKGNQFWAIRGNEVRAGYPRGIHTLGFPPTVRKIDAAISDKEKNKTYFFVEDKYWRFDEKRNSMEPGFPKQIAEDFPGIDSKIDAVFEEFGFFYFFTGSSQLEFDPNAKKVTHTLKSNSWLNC

Ki [1] | Ki [2] | Ki [3] | Ki [4] | Ki [5] | Ki [6] | Papp A→B [7] | AUC [8] | SMILES
2.4 mM | 0.058 mM | > 10 mM | > 10 mM | 1 mM | 0.11 mM | – | – | Cc1cc(COc2ccc(C[C@]3(C(N)=O)C[C@@H]3C(=O)NO)cc2)c2ccccc2n1
– | – | – | – | – | – | 0.3 ×10⁻⁶ cm/s | – | NC(=O)[C@@]1(Cc2ccc(OCc3cc(-c4ccccc4)nc4ccccc34)c(F)c2)C[C@@H]1C(=O)NO
– | – | – | – | – | – | – | > 2.5 µM·h | N#C[C@@]1(Cc2ccc(OCc3cc(-c4ccccc4)nc4ccccc34)cc2)C[C@@H]1C(=O)NO
> 10 mM | > 10 mM | > 10 mM | > 10 mM | > 10 mM | > 10 mM | – | – | O=C(NO)[C@H]1C[C@]1(Cc1ccc(OCc2cc(-c3ccccc3)nc3ccccc23)cc1)C(=O)N1CCC[C@H]1CO
